≈ marks a conversion by molar mass, not a printed value. Entries after “also recorded” stand apart in the source; their conditions may differ. Like-named read-outs stand apart in the source and are kept apart here.
Legend:
[1] = tested on: L. ivanovii HPB 28; format: cell-based, Listeria ivanovii; details: for Total activity: broth microdilution
Excerpt: Microcin J25 was produced by Escherichia coli MC4100 carrying the plasmid PTUC 202 ([Solbiati et al., 1999]). For the antibacterial activity of pure compounds and digestion mixture, Listeria ivanovii HPB28 (Canada Health Protection Branch) was used as indicator strain for nisin and pediocin PA-1, while Staphylococcus aureus ATCC 6538 (ATCC) and Salmonella enterica subsp. enterica serovar Newport ATCC 6962 (later referred to as S. Newport, ATCC) were used as indicator strains for bactofencin A (M14L, M18L) and microcin J25, respectively. L. ivanovii HPB28 and S. aureus were cultured in Tryptic Soy (Difco Laboratories, Spark, MD, United States) supplemented with 0.6% yeast extract (TSBYE), at 30 and 37°C, respectively. S. Newport was cultured at 37°C overnight in Luria-Bertani (LB) (Difco Laboratories, Spark, MD, United States). All strains were maintained at –80°C as stock cultures in their corresponding culture media supplemented with 20% glycerol, and propagated twice at 24 h intervals before use.
Quantitative determination of inhibitory activity of bacteriocins was carried out using the broth microdilution method as described by [Ben Said et al. (2020)]. Two-fold serial dilutions of bacteriocins (125 μL) were prepared in an appropriate medium in a clear 96-well flat-bottom microtiter plate. Indicator strains were diluted to 10^5 CFU/mL, from which 50 μL were added to each well. The microtiter plates were incubated for 24 h under appropriate conditions, and optical densities were recorded at 595 nm (Infinite M200, Tecan, Switzerland). Control wells contained untreated culture and appropriate medium (blanks). The number of inhibition wells was noted and inhibition activities were calculated in μg/mL.

[2] = In vitro simulated GI digestion (INFOGEST, static), stability by RP-HPLC and LC-MS; format: in vitro ADME; details: 37°C
Experimental: In vitro simulated oral, gastric, and small intestinal digestion was adopted from standardized INFOGEST protocol ([Brodkorb et al., 2019]) in three independent replicates. The initial concentration of bacteriocins was selected in order to have sufficient quantity in the digestion mixture to conduct both activity assay by agar well diffusion and by RP-HPLC for quantification.
The entire digestion procedure was performed at 37°C.
Oral conditions: 5 mL of a 8 mg/mL bacteriocin solution (in water) were mixed with simulated salivary fluid [SSF: KCl 15.1 mM, KH2PO4 3.7 mM, NAHCO3 13.6 mM, MgCl2(H2O)6 0.15 mM, (NH4)2CO3 0.06 mM, HCl 1.1mM, CaCl2 (H2O)2 1.5 mM] in 1:1 (v/v) ratio, and the final solution was incubated for 2 min at 37°C.
Gastric conditions: The sample from the oral condition was diluted in 1:1 (v/v) ratio with simulated gastric fluid [SGF: KCl 6.9 mM, KH2PO4 0.9 mM, NAHCO3 25 mM, NaCl 47.2 mM, MgCl2(H2O)6 0.12 mM, (NH4)2CO3 0.5 mM, HCl 15.6 mM, CaCl2 (H2O)2, 0.15 mM] containing pepsin (2000 U/mL in the gastric mixture), and lipase (60 U/mL in the gastric mixture). […]
Small intestine conditions: Samples from gastric conditions were diluted in 1:1 (v/v) ratio with 20 mL of simulated intestinal fluid[SIF KCl 6.8 mM, KH2PO4 0.8 mM, NAHCO3 85 mM, NaCl 38.4 mM, MgCl2(H2O)6 0.33 Mm, HCl 8.4 mM, CaCl2 (H2O)2, 0.6 mM] containing bile salt (10 mmol/L in the final […] mixture) and pancreatin (100 U/mL in final digestion mixture) to acquire a final volume of 40 mL. […] Bacteriocins in the different samples were analyzed by analytical HPLC-UV and liquid-chromatography mass spectrometry (LC-MS/MS). […]
The digestion mixtures were analyzed by LC-MS/MS on an ultra-high-performance LC system (Ultimate 3000 RSLC, Thermo Fisher Scientific) connected to high-resolution electrospray ionization – quadrupole – time of flight (ESI-Q-TOF) mass spectrometer (Maxis II ETD, Bruker Daltonics). […] Data-dependent LC-MS/MS data were acquired in positive ion mode in the mass range m/z 250–2500, using collision induced dissociation with collision energy calculated from m/z and charge states. […]

## C=C(NC(=O)[C@@H](NC(=O)[C@H](Cc1c[nH]cn1)NC(=O)[C@@H](NC(=O)[C@H](CO)NC(=O)[C@@H]1CS[C@@H](C)[C@H]2NC(=O)[C@H](C)NC(=O)[C@H](NC(=O)[C@H](CCCCN)NC(=O)[C@H](CCSC)NC(=O)[C@H](CC(N)=O)NC(=O)[C@@H]3CS[C@@H](C)[C@@H](NC(=O)[C@H](CCCCN)NC(=O)[C@@H]4CS[C@@H](C)[C@@H](NC(=O)[C@@H]5CSC[C@@H](NC(=O)/C(=C/C)NC(=O)[C@@H](N)[C@@H](C)CC)C(=O)N[C@@H]([C@@H](C)CC)C(=O)NC(=C)C(=O)N[C@@H](CC(C)C)C(=O)N5)C(=O)N5CCC[C@H]5C(=O)NCC(=O)N4)C(=O)NCC(=O)N[C@@H](C)C(=O)N[C@@H](CC(C)C)C(=O)N[C@@H](CCSC)C(=O)NCC(=O)N3)[C@H](C)SC[C@H](NC2=O)C(=O)N[C@@H](CC(N)=O)C(=O)N1)[C@@H](C)CC)C(C)C)C(=O)N[C@@H](CCCCN)C(=O)O [nisin Z]
[1]; after gastric conditions (SGF, pepsin 2000 U/mL, lipase 60 U/mL, pH 3, 90 min, 37°C)
  Total activity: 3.12 AU/mL
[1]; after oral conditions (SSF, 2 min, 37°C)
  Total activity: 3.12 AU/mL
[1]; after small intestinal conditions (SIF, bile salt 10 mmol/L, pancreatin 100 U/mL, pH 7, 2 h, 37°C)
  Total activity: 200 AU/mL
[1]; against L. ivanovii
  MIC: 1.65 µg/mL (≈ 0.495 µM)
[1]; pure compound without GI digestion, 24 h, OD 595 nm
  Total activity: 3.12 AU/mL
[2]; SGF with pepsin 2000 U/mL and lipase 60 U/mL, pH 3, 90 min, shaking, RP-HPLC and activity, three independent replicates
  Stability in gastric conditions: good gastric stability
[2]; SIF with bile salt 10 mmol/L and pancreatin 100 U/mL, pH 7, 2 h, RP-HPLC and activity, three independent replicates
  Stability in small intestinal conditions: significantly degraded; also recorded: completely degraded
[2]; oral + gastric + small intestinal conditions
  Stability in the GI tract (whole simulated digestion): complete degradation

— publication PMC8824275, “Gastrointestinal Stability and Cytotoxicity of Bacteriocins From Gram-Positive and Gram-Negative Bacteria: A Comparative in vitro Study” (Frontiers in Microbiology, 2022)
